We go through one molecule from article PMC11272598, “RG7774 (Vicasinabin), an orally bioavailable cannabinoid receptor 2 (CB2R) agonist, decreases retinal vascular permeability, leukocyte adhesion, and ocular inflammation in animal models” (Frontiers in Pharmacology, 2024).

One series in a line: pKa. Particulars: basic. Type of series: physicochemical. An excerpt: TABLE 2 Physicochemical and ADMET profile for RG7774.
The subject of another series is Human EMT. As to the kind of experiment: Human EMT activity (HaCaT cells). Type of series: cell-based. Particulars: RG7774 10 µM. On the procedure:
HaCaT cells were seeded (350,000–400,000 cell/well) in triplicate in 12-well plates and incubated for 15 min in PBS at 37°C with [^3H]-N-arachidonoylethanolamine ([^3H]-AEA) (400 nM) (ARC, MO, USA), as previously reported. Experiments were repeated at 4°C in order to subtract passive diffusion from EMT-mediated uptake. RG7774 (10 µM) was preincubated with labeled HaCaT cells for 15 min before adding directly to the incubation medium (PBS). The selective EMT inhibitor, OMDM-1 (40 µM), was used as positive control.

The nature of the next series: Ocular tissue PK in rats. Type of series: in vivo. Particulars: 26 days of oral administration, 3 and 30 mg/kg/day. As for the experimental part: (§1) The plasma PK profile of RG7774 was assessed in adult male C57BL/6J mice and female Wistar rats (Charles River, Cologne, Germany) housed in a controlled environment (temperature, humidity, and 12 h light/dark cycle) with unrestricted access to food and water. The ocular PK profile of RG7774 was assessed in adult female […] rats (Charles River, Mattawan, MI, United States) housed in a controlled environment (21°C–22°C temperature, 40%–60%, humidity, and 12 h light/dark cycle) with unrestricted access to food and water and conducted according to local regulations by EyeCRO (Ann Arbor, MI, United States).
[…] […] Samples were collected from the tail vein or via heart puncture (terminal) and prepared within 30 min of collection by centrifugation at 3,000 g for 5 min at 4°C and were immediately frozen. RG7774 concentrations in plasma and homogenized tissues were determined using LC-MS/MS. PK parameters were estimated by non-compartmental analysis of plasma data using Phoenix WinNonlin software (Certara, Princeton, NJ, United States).

Series [1] is described as follows: Plasma PK profile in rats. Type of series: in vivo, Wistar rats. Particulars: mean (% CV). On the procedure:
as §1
In the first study (animal permission #1857), mice received RG7774 as an intravenous (IV) bolus at 1 mg/kg (n = 6) or as an oral (PO) dose at 3 mg/kg (n = 5). In the second study (animal permission #2373), rats received RG7774 as an IV bolus at 10 mg/kg (n = 4) or via gavage at 30 mg/kg (n = 3). Blood samples were collected 0.1, 1, 3, 10, and 24 h post-dose under deep anesthesia with 3%–5% isoflurane in 100% O2. Samples were collected sublingually from mice, from the tail vein in rats or via heart puncture (terminal) into anticoagulant-coated polypropylene tubes and placed on ice. Plasma was prepared within 30 min of collection by centrifugation at 3,000 g for 5 min at 4°C and was immediately frozen. RG7774 concentrations in plasma were determined using LC-MS/MS. PK parameters were estimated by non-compartmental analysis of plasma data using Phoenix WinNonlin software (Certara, Princeton, NJ, United States).

Setting [2] is: female, Wistar, rat, plasma, IV 10 mg/kg.
Setting [3] is: female, Wistar, rat, plasma, PO 30 mg/kg.

The structures appear in SMILES notation.

With `Cn1nnnc1Cn1nnc2c(N3CC[C@H](O)C3)nc(C(C)(C)C)nc21` [RG7774, (S)-1-(5-tert-butyl-3-[(1-methyl-1H-tetrazol-5-yl)methyl]-3H-[1,2,3]triazolo[4,5-d]pyrimidin-7-yl)pyrrolidin-3-ol], the pKa in the series “pKa” was found to be 2.63. Further, the “Mean ± SEM % inhibition of control, Human EMT” value in the series on Human EMT turned out to be 4.5 ± 25.5%. Moreover, in the series “Ocular tissue PK in rats”, the “concentrations in retina and choroid/retinal pigment epithelium tissues relative to plasma” value was “in the same range as the total plasma concentration”; the “exposure in the vitreous humor relative to plasma” value is recorded as “closer to that found in free plasma”. The AUCinf/dose in series [1] (IV 10 mg/kg) is given as 6,000 (16) ng h^–1 ml^–1 (mg kg^−1) ^−1. In addition, in series [1] (PO 30 mg/kg), the AUCinf/dose is recorded as 4,670 (9.4) ng h^–1 ml^–1 (mg kg^−1) ^−1 and the Cmax/dose is listed as 466 (13) ng ml^–1 (mg kg^–1) ^−1. Further, in series [1] (setting [2]), the clearance was 2.84 mL/min/kg and the half-life was 152 min. Further, the Vd in series [1] (female, Wistar, rat, plasma, IV 10 mg/kg, read-out: Vss) came to 0.442 L/kg. Moreover, in series [1] (setting [3]), the Tmax amounted to 1.25 h, the bioavailability was found to be 81.4% and the half-life is 191 min.
